# Measured values reported in patent publication US8946201B2, “Methods for inhibiting TGF-β” (Saint Louis University, priority 2007, dated 2015).
# Key:
# PAI-1 expression = experiment: TGF-β1-induced PAI-1 expression, Northern blot, BAEC; assay type: cell-based, bovine; conditions: 50 μg/ml, TGF-β1 2 to 100 pM
# Method: (A, B, C, D, E, F) Cells were treated with 50 μg/ml cholesterol (A, B, C, D) and 50 μg/ml LDL (D) at 37° C. for 1 hr or with 1 μM fluvastatin or lovastatin (E) or several concentrations of fluvastatin (F) at 37° C. for 16 hr and then further incubated with increasing concentrations (as indicated) of TGF-β1 (A, B, C, E) or 50 pM TGF-β1 (D,F) for 2 hr. Northern blot analysis of PAI-1 and G3PDH was performed. A representative of a total of three analyses is shown (a). The relative intensities of the transcripts were quantified with a PhosphoImager. The ratio of the relative intensities of PAI-1 and G3PDH transcripts in cells treated without TGF-β1 and cholesterol, LDL or statins on the blot was taken as 1 fold or 100% of PAI-1 expression. The quantitative data from three independent analyses is shown (b). […] (G) Mv1Lu cells stably expressing a luciferase reporter gene driven by the PAI-1 promoter (MLECs-clone 32) were treated with increasing concentrations (as indicated) of cholesterol at 37 EC for 1 hr (a) or with 1 μM lovastatin at 37° C. for 16 hr (b) and then further incubated with 50 pM TGF-β for 7 hr. The luciferase activity in cells treated without cholesterol was taken as 100% (a). […] (H) Cells were incubated with 0.0625 and 0.125 pM TGF-β1 in the presence of increasing concentrations of cholesterol, as indicated. […] The experiments were carried out in triplicate.
# TβR-I and TβR-II [1] = experiment: Western blot of TβR-I and TβR-II protein levels, Mv1Lu cells; assay type: cell-based, mink; conditions: 50 μg/ml
# Method: Cells grown to near confluence on 12-well cluster dishes were treated with cholesterol or LDL in serum-free DMEM (vol.=0.5 ml/well) at 37° C. for 1 hr. The treated cells were further incubated with 50 or 100 pM TGF-β1 at 37° C. for 30 min (for determining Smad2 phosphorylation) or for 2 hr (for determining TβR-II). Treated cells were lysed and cell lysates were analyzed by 7.5% SDS-PAGE and Western blot analysis using anti-Smad2, anti-P-Smad2, anti-caveolin-1, anti-TβR-I (alk5) or anti-TβR-II antibodies as described previously (30). The antigens on the blots were visualized by using horseradish peroxidase-conjugated anti-rabbit IgG antibody and the ECL system as described (30).
# To determine if cholesterol suppresses TGF-β responsiveness by decreasing the ratio of TGF-β1 binding to TβR-II and TβR-I, we first determined the time course of the effect of cholesterol treatment on the ratio of ^125I-TGF-β1 binding to TβR-II and TβR-I in Mv1Lu cells. These cells were treated with 50 μg/ml cholesterol at 37° C. for several time periods. ^125I-TGF-β1 binding to TGF-β receptors was then determined by affinity labeling using the bifunctional cross-linking agent DSS (disuccinimidyl suberate) followed by 7.5% SDS-PAGE and autoradiography or quantified with a PhosphoImager. […] We then performed analysis of the effect of cholesterol treatment on TGF-β1 binding to TβR-I and TβR-II in several cell types. Mv1Lu, BAEC, and NRK cells were treated for 1 hr with increasing concentrations of cholesterol in the presence and absence of 0.2% β-cyclodextrin (β-CD, which forms water-soluble complexes with cholesterol) at 37° C. The binding of TGF-β1 to TβR-I and TβR-II in these cells was then determined by ^125I-TGF-β1 affinity labeling at 0° C.
# Mv1Lu cells = experiment: Cell viability under the experimental conditions, Mv1Lu cells; assay type: cell-based, mink; conditions: conditions of the thymidine incorporation or affinity labeling experiment
# Method: The growth of cholesterol-treated cells was determined by measurement of [methyl-^3H]thymidine incorporation into cellular DNA as described (30). Briefly, cells grown near confluence on 48-well clustered dishes were treated with several concentrations of cholesterol at 37° C. for 1 hr in serum-free DMEM. The final concentration of ethanol (the vehicle for cholesterol) in the medium was 0.2%. Treated cells were then incubated with 0.0625 pM or 0.125 pM of TGF-β1 in DMEM containing 0.1% fetal calf serum at 37° C. for 18 hr. The [methyl-^3H]thymidine incorporation into cellular DNA was then determined by incubation of cells with [methyl-^3H]thymidine at 37° C. for 2 hr in DMEM containing 0.1% fetal calf serum. The optimal concentrations of TGF-β1 to inhibit cell growth are in the range of 0.1 to 1 pM.
# To define the specificity of the cholesterol effect, we determined the effects of cholesterol analogs and derivatives on ^125I-TGF-β1 binding to TβR-I and TβR-II in Mv1Lu cells. These cells were treated with 50 μg/ml of cholesterol or related oxysterol derivatives (25-hydroxycholesterol, 7-dehydrocholesterol (7-DHC), oxidized 7-DHC (oxy-7-DHC), cholest-5-en-7-one, 7-ketocholesterol, 7β,8β-epoxycholestanol, and 7β-hydroxycholesterol) at 37° C. for 1 hr. ^125I-TGF-β1 binding to TGF-β receptors was then determined by affinity labeling.
# TβR-I and TβR-II [2] = experiment: 125I-TGF-β1 affinity labeling, BAEC; assay type: cell-based, bovine
# Method: (B, C, D, E) Cells were treated with increasing concentrations of cholesterol in the presence (C) and absence (B, D, E) of 0.2% β-CD, as indicated. After 1 hr at 37° C., ^125I-TGF-β1 affinity labeling of TβR-I and TβR-II in cells was performed at 0° C. ^125I-TGF-β1 affinity-labeled TβR-I and TβR-II were analyzed by 7.5% SDS-PAGE and autoradiography or quantified with a PhosphoImager. A representative of a total of three analyses is shown (top). The bracket indicates the locations of ^125I-TGF-β affinity-labeled TβR-I and TβR-II. The relative intensities of ^125I-TGF-β1 affinity-labeled TβR-I and TβR-II in cells treated without cholesterol were taken as 100%. The quantitative data from three analyses is shown (bottom).
# (A, B, C, D, E, F) Cells were treated with LDL (50 μg protein/ml), VLDL (5 μg protein/ml), HDL (50 μg protein/ml), lipoprotein (a) (10 μg/ml), fluvastatin (F; 1 μM), lovastatin (L; 1 μM), nystatin (Nys; 25 μg/ml), β-CD (β-CD; 8 mM), cholest-4-en-3-one (3-one; 50 μg/ml) or cholesterol (Chol; 50 μg/ml) alone or combination of two. After 1 hr at 37° C. or 16 hr at 37° C. (for fluvastatin and lovastatin), ^125I-TGF-β1 affinity labeling of cell-surface TGF-β receptors was performed at 0° C. ^125I-TGF-β1 affinity-labeled TβR-I and TβR-II were analyzed by 7.5% SDS-PAGE and autoradiography. The relative intensities of TβR-I and TβR-II were quantified with a PhosphoImager. The ratio of ^125I-TGF-β1 binding to TβR-II and TβR-I were estimated. The numbers above the lane sequence denote the ratio of TβR-II/TβR-I.
# After cross-linking, cell lysates were analyzed by 7.5% SDS-PAGE and autoradiography or quantified by a PhosphoImager. For all experiments, cholesterol or cholesterol derivatives were prepared as the stock solution with a concentration of 25 mg/ml in ethanol. The final concentration of ethanol in the medium was 0.2% (by vol.).
SMILES,suppression of TGF-β1-stimulated PAI-1 expression (PAI-1 expression),effect on the protein levels of TβR-I and TβR-II (TβR-I and TβR-II [1]; data not shown),effect on the total amount of TβR-II protein (TβR-I and TβR-II [1]; cholesterol alone),effect on cell viability (Mv1Lu cells),"increase of 125I-TGF-β1 binding to TβR-I (TβR-I and TβR-II [2]; 50 μg/ml, 1 hr, BAEC) [fold]","ratio of TβR-II/TβR-I (TβR-I and TβR-II [2]; 50 μg/ml, 1 hr, BAEC, 3.5 untreated)","effect on binding of 125I-TGF-β1 to TβR-II (TβR-I and TβR-II [2]; increasing concentrations, 1 hr, BAEC)","ratio of TβR-II/TβR-I (TβR-I and TβR-II [2]; 1 μM, 37° C. 16 hr, BAEC cells, 2.47 untreated)"
CC(C)CCC[C@@H](C)[C@H]1CC[C@H]2[C@@H]3CC=C4C[C@@H](O)CC[C@]4(C)[C@H]3CC[C@]12C [cholesterol],50-80%,did not affect,did not affect,did not appear to affect,~2.5,1.4,did not significant alter,
"CC[C@H](C)C(=O)O[C@H]1C[C@@H](C)C=C2C=C[C@H](C)[C@H](CC[C@@H]3C[C@@H](O)CC(=O)O3)[C@H]21 [lovastatin, reference compound]",,,,,,,,2.6
